Data: ChEMBL document CHEMBL1201862, “PubChem BioAssay data set” (2004)
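Grown in 96-well plates, cells were treated for 48 hours with each compound at five concentrations. Insufficient inhibition: endpoint recorded as highest concentration tested. Abbreviation: GI50, concentration required for 50% inhibition of growth.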 The source made the active and inactive calls. Cut-off read from the data, not from the text of the source: active = GI50 up to about 1.1 µM and inactive = higher.

Assays:
Assay in all cases: inhibition of tumour cell growth, NCI panel, 48 h
NCI-H522 = tested on: NCI-H522
786-0 = tested on: 786-0
HCC 2998 = tested on: HCC 2998
KM12 = tested on: KM12
A549 = tested on: A549
NCI-H226 = tested on: NCI-H226
NCI-H460 = tested on: NCI-H460
SNB-19 = tested on: SNB-19
SN12C = tested on: SN12C
TK-10 = tested on: TK-10
HOP-92 = tested on: HOP-92
SK-OV-3 = tested on: SK-OV-3
OVCAR-5 = tested on: OVCAR-5
UACC-62 = tested on: UACC-62
CAKI-1 = tested on: CAKI-1
SF-539 = tested on: SF-539
HL-60 = tested on: HL-60

Measured: GI50

COc1ccc([C@H]2CC3C(=O)N(c4ccc(OC)cc4)C(=O)C3c3[nH]c4ccccc4c32)cc1 (stereo partly drawn)
inactive: NCI-H522 99.5 µM | 786-0 10.8 µM | HCC 2998 > 100 µM | KM12 47 µM | A549 47.4 µM | NCI-H226 91 µM | NCI-H460 18.6 µM | SNB-19 32.1 µM | SN12C 51.9 µM | TK-10 > 100 µM | HOP-92 24 µM | SK-OV-3 44.2 µM | OVCAR-5 > 100 µM | UACC-62 > 100 µM | CAKI-1 > 100 µM | SF-539 20.7 µM

CC12CC/C(=N/NC(N)=O)C3C1CCCC32
inactive: NCI-H522 > 100 µM | 786-0 > 100 µM | HL-60 > 100 µM | HCC 2998 > 100 µM | KM12 > 100 µM | A549 > 100 µM | NCI-H226 > 100 µM | NCI-H460 > 100 µM | SNB-19 > 100 µM | SN12C > 100 µM | TK-10 > 100 µM | HOP-92 > 100 µM | SK-OV-3 > 100 µM | UACC-62 > 100 µM | CAKI-1 > 100 µM | SF-539 > 100 µM

O=C1NC(=S)NC(=O)C1=Cc1ccc2ccccc2n1
inactive: NCI-H522 > 100 µM | 786-0 > 100 µM | HL-60 > 100 µM | HCC 2998 > 100 µM | KM12 > 100 µM | A549 > 100 µM | NCI-H226 > 100 µM | NCI-H460 > 100 µM | SNB-19 > 100 µM | SN12C > 100 µM | TK-10 > 100 µM | HOP-92 > 100 µM | SK-OV-3 > 100 µM | OVCAR-5 > 100 µM | UACC-62 > 100 µM | CAKI-1 > 100 µM | SF-539 > 100 µM

N#[N+][c-]1c(-c2ccccc2)n[nH]c1=O
inactive: NCI-H522 > 100 µM | 786-0 > 100 µM | HL-60 > 100 µM | HCC 2998 > 100 µM | KM12 > 100 µM | A549 > 100 µM | NCI-H226 > 100 µM | NCI-H460 > 100 µM | SN12C > 100 µM | TK-10 > 100 µM | HOP-92 > 100 µM | SK-OV-3 > 100 µM | OVCAR-5 > 100 µM | CAKI-1 > 100 µM | SF-539 > 100 µM

Cc1ccc2nc(NC(=O)C(=O)C(C#N)c3nc4ccccc4s3)sc2c1 (stereo not drawn)
inactive: NCI-H522 32.1 µM | 786-0 44.5 µM | HCC 2998 79.8 µM | KM12 47.2 µM | NCI-H226 25.1 µM | NCI-H460 34 µM | SNB-19 31.8 µM | SN12C 54 µM | TK-10 30.8 µM | HOP-92 26.4 µM | SK-OV-3 55.8 µM | OVCAR-5 57.5 µM | UACC-62 30.7 µM | CAKI-1 42.2 µM | SF-539 22.3 µM

CCOC(=O)c1csc(CCCCCCc2nc(C(=O)OCC)cs2)n1
inactive: NCI-H522 > 100 µM | 786-0 33.2 µM | HL-60 > 48.3 µM | HCC 2998 > 100 µM | KM12 > 100 µM | A549 > 45.6 µM | NCI-H226 44.9 µM | NCI-H460 29.7 µM | SNB-19 > 76.4 µM | SN12C > 82.6 µM | TK-10 > 92.5 µM | HOP-92 > 58.2 µM | SK-OV-3 > 65.5 µM | OVCAR-5 > 100 µM | UACC-62 > 83.8 µM | CAKI-1 > 88.7 µM | SF-539 > 58.3 µM

COc1ccc(/C=C/C(=O)c2sc(-c3cccnc3)nc2C)cc1
inactive: NCI-H522 20.5 µM | 786-0 41.6 µM | HL-60 20.4 µM | HCC 2998 37.5 µM | KM12 15.3 µM | A549 39.2 µM | NCI-H226 23.8 µM | NCI-H460 53.5 µM | SN12C 64.6 µM | TK-10 38.6 µM | HOP-92 81.5 µM | SK-OV-3 82.6 µM | OVCAR-5 > 100 µM | UACC-62 46.3 µM | CAKI-1 49.9 µM | SF-539 21.1 µM

BrC12C3C4C5C(C(C43)C13OCCO3)C52 (stereo not drawn)
inactive: NCI-H522 > 100 µM | 786-0 > 100 µM | HL-60 > 100 µM | HCC 2998 > 100 µM | KM12 > 100 µM | A549 > 100 µM | NCI-H460 > 100 µM | SNB-19 > 100 µM | TK-10 > 100 µM | HOP-92 58.1 µM | SK-OV-3 > 100 µM | OVCAR-5 > 100 µM | SF-539 > 100 µM

CC1CC2C3CCC4=CC(=O)C=CC4(C)C3(F)C(O)CC2(C)C1(O)C(=O)CO.Cc1nnc(NS(=O)(=O)c2ccc(/N=N/c3cc(/N=N/c4ccc(S(=O)(=O)Nc5nnc(C)s5)cc4)c4c(NC(=O)C(Cl)Cl)cccc4c3OC(=O)C(Cl)Cl)cc2)s1
inactive: NCI-H522 21.6 µM | 786-0 25.6 µM | HL-60 9.95 µM | HCC 2998 21.3 µM | KM12 23.6 µM | A549 11.6 µM | NCI-H460 21.5 µM | SNB-19 48.5 µM | SN12C 3.3 µM | TK-10 43.3 µM | HOP-92 51.6 µM | OVCAR-5 27.9 µM | UACC-62 33 µM | CAKI-1 81.5 µM | SF-539 18.9 µM

CSc1sc(=S)sc1C(=O)N(C)c1ccccc1
inactive: NCI-H522 48.8 µM | 786-0 > 100 µM | HL-60 35.6 µM | KM12 91.8 µM | A549 > 100 µM | NCI-H226 > 100 µM | NCI-H460 > 100 µM | SNB-19 > 100 µM | SN12C > 100 µM | TK-10 > 100 µM | OVCAR-5 > 100 µM | UACC-62 78.7 µM | SF-539 > 100 µM

COc1ccc(-c2cc(-c3cc(Cl)cc(Br)c3O)nc(O)n2)cc1
inactive: NCI-H522 13.4 µM | 786-0 15.5 µM | HL-60 23.2 µM | HCC 2998 19.9 µM | KM12 18.9 µM | A549 16.7 µM | NCI-H226 17.5 µM | NCI-H460 17.9 µM | SNB-19 23.9 µM | SN12C 15.5 µM | TK-10 26.2 µM | HOP-92 17.8 µM | SK-OV-3 19.5 µM | UACC-62 14.9 µM | CAKI-1 16.4 µM | SF-539 14.7 µM

CC(=O)O[C@@H]1CC(C)C2CC2C2=C(C(O)OC2O)[C@@H]1C(C)CCC=C(C)C (stereo partly drawn)
inactive: NCI-H522 15.3 µM | 786-0 21.4 µM | HL-60 20.4 µM | HCC 2998 20.8 µM | A549 22.7 µM | NCI-H226 20.1 µM | NCI-H460 20 µM | SNB-19 33.7 µM | SN12C 18.4 µM | TK-10 33.3 µM | HOP-92 12.8 µM | OVCAR-5 18.3 µM | UACC-62 26.3 µM | CAKI-1 26.4 µM | SF-539 18.9 µM

CC(C)c1ccccc1NC(=O)CCC(=O)NN
inactive: NCI-H522 > 100 µM | 786-0 > 100 µM | HL-60 > 100 µM | KM12 > 100 µM | A549 > 100 µM | NCI-H226 > 100 µM | SNB-19 > 100 µM | SN12C > 100 µM | TK-10 > 100 µM | HOP-92 > 100 µM | SK-OV-3 > 100 µM | UACC-62 > 100 µM | CAKI-1 > 100 µM | SF-539 > 100 µM

CC(C)CCC[C@@H](C)C1CCC2[C@@H]3CC=C4C[C@@H](C(=O)NCC[N+](C)(C)CCCS(=O)(=O)[O-])CC[C@]4(C)C3CC[C@@]21C (stereo partly drawn)
inactive: NCI-H522 11.5 µM | 786-0 17.2 µM | HL-60 13.4 µM | HCC 2998 19.8 µM | KM12 17.4 µM | A549 17.3 µM | NCI-H226 21.2 µM | NCI-H460 15.7 µM | SNB-19 21.8 µM | SN12C 17.9 µM | SK-OV-3 16.8 µM | UACC-62 20.1 µM | CAKI-1 14.2 µM | SF-539 21.3 µM

CC1(C)Oc2ccccc2N2O[C@@H]3C(=O)N(c4ccccc4)C(=O)[C@@H]3C21c1ccccc1 (stereo partly drawn)
inactive: NCI-H522 28.7 µM | 786-0 16.6 µM | HL-60 > 10 µM | HCC 2998 > 100 µM | KM12 30.6 µM | A549 20.1 µM | NCI-H226 55.3 µM | NCI-H460 28.9 µM | SNB-19 19.7 µM | TK-10 17.9 µM | SK-OV-3 22.1 µM | OVCAR-5 78.3 µM | UACC-62 33.1 µM | CAKI-1 24.9 µM | SF-539 17.3 µM

CCSc1nnc(-c2ccccc2)nc1Cc1ccc(OC)cc1
inactive: NCI-H522 43.3 µM | 786-0 > 100 µM | HL-60 40.5 µM | HCC 2998 > 100 µM | KM12 > 100 µM | A549 42.2 µM | NCI-H226 > 100 µM | NCI-H460 46.5 µM | SNB-19 > 100 µM | SN12C > 100 µM | TK-10 > 100 µM | HOP-92 > 100 µM | SK-OV-3 67.3 µM | UACC-62 > 100 µM | SF-539 > 100 µM

NCCSc1cc(O)c2c(c1N)C(=O)c1ccccc1C2=O
inactive: NCI-H522 19.6 µM | 786-0 29.9 µM | HL-60 20.8 µM | HCC 2998 > 100 µM | KM12 51.2 µM | A549 > 100 µM | NCI-H460 36 µM | SNB-19 34 µM | SN12C 47.1 µM | TK-10 > 100 µM | HOP-92 60.5 µM | SK-OV-3 > 100 µM | OVCAR-5 > 100 µM | UACC-62 36.7 µM | CAKI-1 > 100 µM | SF-539 92.5 µM

O=C1CC2=CCCC2O1 (stereo not drawn)
inactive: NCI-H522 > 100 µM | 786-0 > 100 µM | HL-60 > 100 µM | HCC 2998 > 100 µM | KM12 > 100 µM | A549 > 100 µM | NCI-H460 > 100 µM | SNB-19 > 100 µM | SN12C > 100 µM | TK-10 > 100 µM | HOP-92 > 100 µM | SK-OV-3 > 100 µM | UACC-62 > 100 µM | CAKI-1 > 100 µM | SF-539 > 100 µM
